Reference: PubChem BioAssay (NCI)
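96-well plates; 48 h exposure; 5 concentrations. Endpoints by linear interpolation between flanking doses. Not reached: highest tested concentration assigned. GI50 is the concentration that inhibits growth by half. TGI denotes the concentration required for complete inhibition of growth.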

Tests used:
Test in all cases: NCI tumour cell line growth inhibition, 48 h
786-0 renal = system: 786-0 renal
MDA-MB-231 breast = system: MDA-MB-231 breast
P388 leukemia = system: P388 leukemia
XF 498 CNS = system: XF 498 CNS
P388/ADR leukemia = system: P388/ADR leukemia
SN12K1 renal = system: SN12K1 renal
KM20L2 colon = system: KM20L2 colon
T-47D breast = system: T-47D breast
RXF-631 renal = system: RXF-631 renal

Compound | TGI (786-0 renal) [µM] | TGI (MDA-MB-231 breast) [µM] | TGI (KM20L2 colon) [µM] | TGI (T-47D breast) [µM] | further results
Cc1ccc(CCCC(=O)O)cc1C | > 100 | > 100 |  |  | 
CSc1nc(NC2OC(CO)C(O)C(O)C2O)c(N)c(=O)n1C (stereo not given) |  |  | > 100 |  | TGI (P388 leukemia): > 100 µM; TGI (XF 498 CNS): > 100 µM; TGI (P388/ADR leukemia): > 100 µM; TGI (SN12K1 renal): > 100 µM
N=C(N)c1ccc(-c2ccc(-c3ccccc3)o2)cc1 |  | 4.08 |  |  | GI50 (MDA-MB-231 breast): 1.93 µM
Nc1cccc2cc(S(=O)(=O)Nc3ccc(C(=O)O)cc3)ccc12 | > 100 | > 100 |  | > 100 | 
NC(=O)OCc1c(O)c2c(c(O)c1COC(N)=O)C(=O)C=CC2=O |  |  | > 100 |  | 
O=C(Nc1ccc(-n2cc(-c3ccncc3)c(-c3ccc(O)c(Cl)c3)n2)cc1)c1ccc(Cl)c(Cl)c1 |  | 1.11 |  | > 32.5 | GI50 (T-47D breast): 2.37 µM; GI50 (MDA-MB-231 breast): 0.51 µM
CC(C)c1cccc(C(C)C)c1NC(=S)Nc1ccccc1 |  |  | > 100 |  | TGI (RXF-631 renal): > 100 µM
CCN(CC)CCSc1nc2c([N+](=O)[O-])cccc2[nH]1 |  |  |  |  | TGI (RXF-631 renal): > 100 µM; TGI (XF 498 CNS): > 100 µM
CC[n+]1c(/C=C/c2ccc(N(CCCl)CCCl)cc2)ccc2cc(Br)ccc21 | 10.1 |  | 11.9 |  | TGI (XF 498 CNS): 1.18 µM
O=C1c2ccccc2-c2ccc(N(Cc3ccc(Br)cc3)Cc3ccc(Br)cc3)cc21 | > 100 | > 100 |  | > 100 | 
CC(C)=CCC/C(C)=C/CC/C(C)=C/C(O)c1ccccc1 (stereo not given) |  |  | 36 |  | TGI (RXF-631 renal): 34.1 µM
CNC1=C(C)C(=O)C2=C(C1=O)C(COC(N)=O)C1(OC)C3NC3CN21 (stereo not given) |  |  |  | 18.1 | 
